Data from paper PMC7490411 (Signal Transduction and Targeted Therapy, 2020).

Tests used:
[1] = test system: BIKE; assay: KINOMEscan; assay type: binding; details: 1000 nM
[2] = test system: FLT3(ITD); assay: KINOMEscan; assay type: binding; details: 1000 nM
[3] = test system: YSK4; assay: KINOMEscan; assay type: binding; details: 1000 nM
[4] = test system: IGF1R; assay: KINOMEscan; assay type: binding; details: 1000 nM
[5] = test system: LZK; assay: KINOMEscan; assay type: binding; details: 1000 nM
[6] = test system: SGK3; assay: KINOMEscan; assay type: binding; details: 1000 nM
[7] = test system: VEGFR2; assay: KINOMEscan; assay type: binding; details: 1000 nM
[8] = test system: FLT4; assay: KINOMEscan; assay type: binding; details: 1000 nM
[9] = test system: PDGFRB; assay: KINOMEscan; assay type: binding; details: 1000 nM
[10] = test system: PAK1; assay: KINOMEscan; assay type: binding; details: 1000 nM
[11] = test system: EGFR(L861Q); assay: KINOMEscan; assay type: binding; details: 1000 nM
[12] = test system: KIT(V559D); assay: KINOMEscan; assay type: binding; details: 1000 nM
[13] = test system: PDGFRA; assay: KINOMEscan; assay type: binding; details: 1000 nM
[14] = test system: CAMK2D; assay: KINOMEscan; assay type: binding; details: 1000 nM
[15] = test system: TAK1; assay: KINOMEscan; assay type: binding; details: 1000 nM
[16] = test system: EGFR(E746-A750del); assay: KINOMEscan; assay type: binding; details: 1000 nM
[17] = test system: PKN2; assay: KINOMEscan; assay type: binding; details: 1000 nM
[18] = biological target: T1, BTK (Homo sapiens, UniProt Q06187); assay: target-engagement assay with biotinylated probe CHMFL-BTK-85B in REC-1 cell; assay type: binding; details: 2 h, 1 μM
T1 construct: purchased Invitrogen (Carlsbad, CA, USA)
Experimental: Cell lysates from REC-1 cells were treated with different concentrations of covalent inhibitor CHMFL-BTK-85 on ice for 2 hours. 1 µM biotinylated covalent probe (CHMFL-BTK-85B) was then added and lysates were incubated for another 2 hours. Uninhibited BTK was then captured by adding 50 µl Streptavidin agarose resin suspensions (Pierce) followed by an incubation for 1 hour. The resin was then spun down, washed briefly with 1X PBS buffer, and then resuspended in protein sample buffer for Western blot analysis.

[19] = test system: JAK3(JH1domain-catalytic); assay: KINOMEscan; assay type: binding; details: 1000 nM
[20] = test system: PRKCQ; assay: KINOMEscan; assay type: binding; details: 1000 nM
[21] = test system: CDKL5; assay: KINOMEscan; assay type: binding; details: 1000 nM
[22] = test system: DRAK1; assay: KINOMEscan; assay type: binding; details: 1000 nM
[23] = test system: TYK2(JH1domain-catalytic); assay: KINOMEscan; assay type: binding; details: 1000 nM
[24] = test system: CDK5; assay: KINOMEscan; assay type: binding; details: 1000 nM
[25] = biological target: T1, BTK; assay: KINOMEscan; assay type: binding; details: 1000 nM
[26] = test system: MET(M1250T); assay: KINOMEscan; assay type: binding; details: 1000 nM
[27] = test system: STK39; assay: KINOMEscan; assay type: binding; details: 1000 nM
[28] = test system: NEK10; assay: KINOMEscan; assay type: binding; details: 1000 nM
[29] = test system: IRAK1; assay: KINOMEscan; assay type: binding; details: 1000 nM
[30] = test system: PIK3CA; assay: KINOMEscan; assay type: binding; details: 1000 nM
[31] = test system: CAMKK1; assay: KINOMEscan; assay type: binding; details: 1000 nM
[32] = test system: SRPK3; assay: KINOMEscan; assay type: binding; details: 1000 nM
[33] = test system: ULK1; assay: KINOMEscan; assay type: binding; details: 1000 nM
[34] = test system: PIK3CA(E545A); assay: KINOMEscan; assay type: binding; details: 1000 nM
[35] = test system: CTK; assay: KINOMEscan; assay type: binding; details: 1000 nM
[36] = test system: ERK5; assay: KINOMEscan; assay type: binding; details: 1000 nM
[37] = test system: STK33; assay: KINOMEscan; assay type: binding; details: 1000 nM
[38] = test system: JEKO-1; assay: anti-proliferative CellTiter-Glo assay; assay type: cell-based; details: Homo sapiens, JeKo-1, 72 h
Experimental: (§1) Cell viability was measured using the CellTiter–Glo assay (Promega, USA) according to the manufacturer’s instructions, and […] was measured in a Bio-red Microplate reader (Bio-Red, USA).

[39] = test system: DOHH2; assay: anti-proliferative CellTiter-Glo assay; assay type: cell-based; details: Homo sapiens, DOHH-2; DOHH2, 72 h
Experimental: as §1

[40] = test system: WSU-DLCL2; assay: anti-proliferative CellTiter-Glo assay; assay type: cell-based; details: Homo sapiens, WSUDLCL2; WSU-DLCL2, 72 h
Experimental: as §1

[41] = test system: Ramos; assay: anti-proliferative CellTiter-Glo assay; assay type: cell-based; details: Homo sapiens, 72 h
Experimental: as §1

[42] = test system: TMD8; assay: anti-proliferative CellTiter-Glo assay; assay type: cell-based; details: Homo sapiens, TMD8, 72 h
Experimental: as §1

[43] = test system: SU-DHL-6; assay: anti-proliferative CellTiter-Glo assay; assay type: cell-based; details: Homo sapiens, SU-DHL-6, 72 h
Experimental: as §1

[44] = test system: Pfeiffer; assay: anti-proliferative CellTiter-Glo assay; assay type: cell-based; details: Homo sapiens, 72 h
Experimental: as §1

[45] = test system: REC-1; assay: anti-proliferative CellTiter-Glo assay; assay type: cell-based; details: Homo sapiens, Rec1; REC-1, 72 h
Experimental: as §1

[46] = test system: U2932; assay: anti-proliferative CellTiter-Glo assay; assay type: cell-based; details: Homo sapiens, U2932, 72 h
Experimental: as §1

[47] = test system: SU-DHL-2; assay: anti-proliferative CellTiter-Glo assay; assay type: cell-based; details: Homo sapiens, SU-DHL-2, 72 h
Experimental: as §1

[48] = test system: Raji; assay: anti-proliferative CellTiter-Glo assay; assay type: cell-based; details: Homo sapiens, 72 h
Experimental: as §1

[49] = test system: MARK2; assay: KINOMEscan; assay type: binding; details: 1000 nM
[50] = test system: PAK7; assay: KINOMEscan; assay type: binding; details: 1000 nM
[51] = test system: FLT3-autoinhibited; assay: KINOMEscan; assay type: binding; details: 1000 nM

T1 sequence (Q06187 whole entry): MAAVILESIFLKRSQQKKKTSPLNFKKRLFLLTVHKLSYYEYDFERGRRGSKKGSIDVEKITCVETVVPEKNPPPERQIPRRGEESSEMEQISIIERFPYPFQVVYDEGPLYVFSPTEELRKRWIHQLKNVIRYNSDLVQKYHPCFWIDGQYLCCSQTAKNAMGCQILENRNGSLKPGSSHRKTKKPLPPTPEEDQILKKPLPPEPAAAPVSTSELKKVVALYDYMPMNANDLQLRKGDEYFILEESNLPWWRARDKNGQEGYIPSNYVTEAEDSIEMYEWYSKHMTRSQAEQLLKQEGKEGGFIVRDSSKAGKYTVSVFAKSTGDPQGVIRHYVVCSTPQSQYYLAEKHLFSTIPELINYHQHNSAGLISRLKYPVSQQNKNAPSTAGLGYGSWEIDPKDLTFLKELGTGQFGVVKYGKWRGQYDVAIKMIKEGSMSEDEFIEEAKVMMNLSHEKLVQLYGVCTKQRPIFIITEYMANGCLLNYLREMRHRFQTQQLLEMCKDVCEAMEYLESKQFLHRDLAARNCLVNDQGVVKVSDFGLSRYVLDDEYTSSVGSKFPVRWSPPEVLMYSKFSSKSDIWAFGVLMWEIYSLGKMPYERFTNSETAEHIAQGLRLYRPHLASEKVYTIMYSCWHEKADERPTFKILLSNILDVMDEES

Compound: C=CC(=O)Nc1cc(Nc2cc(-c3cccc(NC(=O)c4cc5c(s4)CCCC5)c3C)cn(C)c2=O)ccc1N1CCN(CC)CC1 [CHMFL-BTK-85]
- Percent Control [1]: 100%
- Percent Control [2]: 99%
- Percent Control [3]: 100%
- Percent Control [4]: 76%
- Percent Control [5]: 100%
- Percent Control [6]: 100%
- Percent Control [7]: 99%
- Percent Control [8]: 97%
- Percent Control [9]: 68%
- Percent Control [10]: 75%
- Percent Control [11]: 94%
- Percent Control [12]: 79%
- Percent Control [13]: 100%
- Percent Control [14]: 75%
- Percent Control [15]: 100%
- Percent Control [16]: 100%
- Percent Control [17]: 81%
- covalent labelling of BTK in competition with CHMFL-BTK-85B [18]: almost completely covalently label all of the available BTK
- Percent Control [19]: 80%
- Percent Control [20]: 80%
- Percent Control [21]: 100%
- Percent Control [22]: 97%
- Percent Control [23]: 100%
- Percent Control [24]: 98%
- percent of control binding at 1 µM [25]: 0.9%
- Percent Control [26]: 95%
- Percent Control [27]: 100%
- Percent Control [28]: 100%
- Percent Control [29]: 100%
- Percent Control [30]: 82%
- Percent Control [31]: 75%
- Percent Control [32]: 83%
- Percent Control [33]: 100%
- Percent Control [34]: 65%
- Percent Control [35]: 99%
- Percent Control [36]: 100%
- Percent Control [37]: 90%
- GI50 [38]: 1100 ± 240 nM
- GI50 [39]: 700 ± 150 nM
- GI50 [40]: 1400 ± 210 nM
- GI50 [41]: 1300 ± 100 nM
- GI50 [42]: 17 ± 4 nM
- GI50 [43]: 970 ± 220 nM
- GI50 [44]: 290 ± 140 nM
- GI50 [45]: 28 ± 7 nM
- GI50 [46]: 800 ± 96 nM
- GI50 [47]: 570 ± 350 nM
- GI50 [48]: 1500 ± 58 nM
- Percent Control [49]: 91%
- Percent Control [50]: 82%
- Percent Control [51]: 100%
